According to the supplement of paper PMC11451515:

How the values were obtained:
Settings in all cases: 48 h
SEM cells [1] = test: AUC of viability dose-response curve (% viability x log10 dose units); higher = less sensitive
Method in brief: (§1)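 Leukemia cells adapted to each medium were seeded at 500 or 1000 cells/well in 1536-well plates and dosed with library compounds in DMSO at 11 threefold doses from 47 μM to 0.79 nM for 48 h at 37°C. CellTiter-Glo One luminescence was normalised per plate to DMSO and cell-free wells, then fitted with a four-parameter log-logistic model over log10 doses. Area under the curve was taken from this fit by the trapezoidal rule, with curves above full viability scaled and curves failing quality control removed.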

P12-Ichikawa [2] = test: as above
Method in brief: as §1

NOMO1 [3] = test: as above
Method in brief: as §1

SEM cells [4] = test: cell viability relative to DMSO control; higher = less cytotoxic
Method in brief: (§2)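 Leukemia cells (NOMO1 or SEM, 500 cells/well; P12-Ichikawa, 1000 cells/well) were seeded in 5 μl in 1536-well plates after at least four passages of adaptation to each medium. They received library compounds in DMSO by pin dosing, 11 threefold points from 47 μM to 0.79 nM. Luminescence with CellTiter-Glo One was read after 48 h at 37°C. Viability is stated per plate relative to DMSO wells, with cell-free wells as background.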

P12-Ichikawa [5] = test: as above
Method in brief: as §2

NOMO1 [6] = test: as above
Method in brief: as §2

CC1(C)CC\C2=C(/O1)C3=C(C=CC=C3)C(=O)C2=O
AUC of viability dose-response curve
Settings | NOMO1 [3] | P12-Ichikawa [2] | SEM cells [1]
HPLM + 10% dialyzed FBS | 449 | 449 | 437
RPMI 5 mM glucose + 10% FBS | 446 | 447 | 436
RPMI 5 mM glucose + 10% dialyzed FBS | 451 | 450 | 401

cell viability [%]
Settings | NOMO1 [6] | P12-Ichikawa [5] | SEM cells [4]
HPLM + 10% dialyzed FBS, 0.000781 µM | 123 | 112 | 103
HPLM + 10% dialyzed FBS, 0.00234 µM | 112 | 118 | 117
HPLM + 10% dialyzed FBS, 0.00702 µM | 113 | 114 | 86.2
HPLM + 10% dialyzed FBS, 0.0211 µM | 101 | 116 | 112
HPLM + 10% dialyzed FBS, 0.0632 µM | 112 | 106 | 113
HPLM + 10% dialyzed FBS, 0.19 µM | 104 | 111 | 110
HPLM + 10% dialyzed FBS, 0.569 µM | 103 | 110 | 98.8
HPLM + 10% dialyzed FBS, 1.71 µM | 118 | 102 | 94.7
HPLM + 10% dialyzed FBS, 5.12 µM | 99 | 104 | 95
HPLM + 10% dialyzed FBS, 15.4 µM | 98.4 | 99.4 | 78.9
HPLM + 10% dialyzed FBS, 46.1 µM | 4.14 | 2.4 | 4.79
RPMI 5 mM glucose + 10% FBS, 0.000781 µM | 113 | 113 | 127
RPMI 5 mM glucose + 10% FBS, 0.00234 µM | 104 | 106 | 115
RPMI 5 mM glucose + 10% FBS, 0.00702 µM | 115 | 94.9 | 94.1
RPMI 5 mM glucose + 10% FBS, 0.0211 µM | 103 | 102 | 124
RPMI 5 mM glucose + 10% FBS, 0.0632 µM | 108 | 112 | 129
RPMI 5 mM glucose + 10% FBS, 0.19 µM | 111 | 109 | 117
RPMI 5 mM glucose + 10% FBS, 0.569 µM | 90.9 | 105 | 117
RPMI 5 mM glucose + 10% FBS, 1.71 µM | 107 | 98.3 | 102
RPMI 5 mM glucose + 10% FBS, 5.12 µM | 108 | 105 | 108
RPMI 5 mM glucose + 10% FBS, 15.4 µM | 88.2 | 90.5 | 76.3
RPMI 5 mM glucose + 10% FBS, 46.1 µM | 5.12 | 0.954 | 3.64
RPMI 5 mM glucose + 10% dialyzed FBS, 0.000781 µM | 109 | 107 | 105
RPMI 5 mM glucose + 10% dialyzed FBS, 0.00234 µM | 97.4 | 119 | 121
RPMI 5 mM glucose + 10% dialyzed FBS, 0.00702 µM | 109 | 100 | 95.4
RPMI 5 mM glucose + 10% dialyzed FBS, 0.0211 µM | 113 | 101 | 102
RPMI 5 mM glucose + 10% dialyzed FBS, 0.0632 µM | 103 | 108 | 114
RPMI 5 mM glucose + 10% dialyzed FBS, 0.19 µM | 102 | 96.6 | 119
RPMI 5 mM glucose + 10% dialyzed FBS, 0.569 µM | 101 | 109 | 100
RPMI 5 mM glucose + 10% dialyzed FBS, 1.71 µM | 99.9 | 89.2 | 84.5
RPMI 5 mM glucose + 10% dialyzed FBS, 5.12 µM | 100 | 102 | 72.9
RPMI 5 mM glucose + 10% dialyzed FBS, 15.4 µM | 96.3 | 94.9 | 55.8
RPMI 5 mM glucose + 10% dialyzed FBS, 46.1 µM | 6.57 | 1.41 | 2.69

CO[C@H]1CCC(O[C@H]2C[C@H]([C@]3(C)CC[C@]4(C[C@H](O)[C@@H](C)[C@@H]([C@@H](C)/C=C(\C)C(=O)[C@H](C)C[C@H](C)C(=O)[O-])O4)O3)O[C@]3(O[C@@H]([C@H]4O[C@@](O)(CO)[C@H](C)C[C@@H]4C)C[C@@H]3C)[C@@H]2C)O[C@@H]1C (stereo not given in full)
AUC of viability dose-response curve
Settings | NOMO1 [3] | P12-Ichikawa [2] | SEM cells [1]
HPLM + 10% dialyzed FBS | 405 | 353 | 368
RPMI 5 mM glucose + 10% FBS | 449 | 366 | 352
RPMI 5 mM glucose + 10% dialyzed FBS | 415 | 376 | 344

cell viability [%]
Settings | NOMO1 [6] | P12-Ichikawa [5] | SEM cells [4]
HPLM + 10% dialyzed FBS, 0.000781 µM | 112 | 120 | –
HPLM + 10% dialyzed FBS, 0.00234 µM | 124 | 124 | –
HPLM + 10% dialyzed FBS, 0.00702 µM | 136 | 119 | –
HPLM + 10% dialyzed FBS, 0.0211 µM | 109 | 118 | –
HPLM + 10% dialyzed FBS, 0.0632 µM | 134 | 111 | –
HPLM + 10% dialyzed FBS, 0.19 µM | 101 | 106 | –
HPLM + 10% dialyzed FBS, 0.569 µM | 118 | 87.3 | –
HPLM + 10% dialyzed FBS, 1.71 µM | 88.8 | 80.2 | –
HPLM + 10% dialyzed FBS, 5.12 µM | 84.4 | 48.8 | –
HPLM + 10% dialyzed FBS, 15.4 µM | 63.7 | 35.7 | –
HPLM + 10% dialyzed FBS, 46.1 µM | 55.1 | 21.5 | –
RPMI 5 mM glucose + 10% FBS, 0.000781 µM | 123 | 124 | 121
RPMI 5 mM glucose + 10% FBS, 0.00234 µM | 121 | 113 | 119
RPMI 5 mM glucose + 10% FBS, 0.00702 µM | 113 | 106 | 112
RPMI 5 mM glucose + 10% FBS, 0.0211 µM | 122 | 113 | 108
RPMI 5 mM glucose + 10% FBS, 0.0632 µM | 145 | 111 | 117
RPMI 5 mM glucose + 10% FBS, 0.19 µM | 121 | 103 | 128
RPMI 5 mM glucose + 10% FBS, 0.569 µM | 124 | 99.7 | 98.3
RPMI 5 mM glucose + 10% FBS, 1.71 µM | 118 | 73.1 | 66.6
RPMI 5 mM glucose + 10% FBS, 5.12 µM | 111 | 44.2 | 29.8
RPMI 5 mM glucose + 10% FBS, 15.4 µM | 97.6 | 28.9 | 18.7
RPMI 5 mM glucose + 10% FBS, 46.1 µM | 67.7 | 22.7 | 14.3
RPMI 5 mM glucose + 10% dialyzed FBS, 0.000781 µM | 112 | 118 | –
RPMI 5 mM glucose + 10% dialyzed FBS, 0.00234 µM | 122 | 120 | –
RPMI 5 mM glucose + 10% dialyzed FBS, 0.00702 µM | 133 | 109 | –
RPMI 5 mM glucose + 10% dialyzed FBS, 0.0211 µM | 118 | 119 | –
RPMI 5 mM glucose + 10% dialyzed FBS, 0.0632 µM | 111 | 120 | –
RPMI 5 mM glucose + 10% dialyzed FBS, 0.19 µM | 114 | 119 | –
RPMI 5 mM glucose + 10% dialyzed FBS, 0.569 µM | 132 | 108 | –
RPMI 5 mM glucose + 10% dialyzed FBS, 1.71 µM | 106 | 88.8 | –
RPMI 5 mM glucose + 10% dialyzed FBS, 5.12 µM | 48.9 | 39.7 | –
RPMI 5 mM glucose + 10% dialyzed FBS, 15.4 µM | 78.2 | 25.3 | –
RPMI 5 mM glucose + 10% dialyzed FBS, 46.1 µM | 64.2 | 27.1 | –

c1ccc(CNc2nc(NCc3ccccc3)c3ccccc3n2)cc1
AUC of viability dose-response curve
Settings | NOMO1 [3] | P12-Ichikawa [2] | SEM cells [1]
HPLM + 10% dialyzed FBS | 450 | 473 | 440
RPMI 5 mM glucose + 10% FBS | 466 | 465 | 462
RPMI 5 mM glucose + 10% dialyzed FBS | 463 | 465 | 470

cell viability [%], HPLM + 10% dialyzed FBS
Settings | NOMO1 [6] | SEM cells [4]
0.000781 µM | 92.7 | 104
0.00234 µM | 114 | 116
0.00702 µM | 144 | 117
0.0211 µM | 121 | 125
0.0632 µM | 138 | 130
0.19 µM | 134 | 132
0.569 µM | 148 | 136
1.71 µM | 158 | 127
5.12 µM | 132 | 136
15.4 µM | 118 | 133
46.1 µM | 5.97 | 32.5
